Experimental data as given in ChEMBL document CHEMBL3885881, “DrugMatrix”.

Species: Rattus norvegicus
Assay: DrugMatrix - Regimen: Daily Repeat
Format: toxicity, organism-based, Sprague-Dawley
Set-up: regimen Daily Repeat, gender Male, age 6-8 weeks
Settings: in vivo, po, route oral GAVAGE, vehicle .5 % CMC; for ABSOLUTE BASOPHIL / ABSOLUTE EOSINOPHIL / ABSOLUTE LYMPHOCYTE / ABSOLUTE MONOCYTE / ABSOLUTE SEGMENTED NEUTROPHIL / BASOPHIL / EOSINOPHIL / ERYTHROCYTE COUNT / HEMATOCRIT / HEMOGLOBIN / LEUKOCYTE COUNT / LYMPHOCYTE / MEAN CORPUSCULAR HEMOGLOBIN / MEAN CORPUSCULAR HEMOGLOBIN CONCENTRATION / MEAN CORPUSCULAR VOLUME / MONOCYTE / NEUTROPHIL / NUCLEATED RED BLOOD CELLS / PLATELET COUNT: tissue Blood; for ALANINE AMINOTRANSFERASE / ALBUMIN / ALKALINE PHOSPHATASE / ASPARTATE AMINOTRANSFERASE / BLOOD UREA NITROGEN / CARBON DIOXIDE / CHLORIDE / CHOLESTEROL / CREATINE PHOSPHOKINASE / CREATININE / GLUCOSE / LACTATE DEHYDROGENASE / LIPASE / PHOSPHORUS / POTASSIUM / SODIUM / TOTAL BILIRUBIN / TOTAL PROTEIN / URIC ACID: tissue Plasma
[1] = 20 mg/kg, 72 h, dose level Low, time 3 day
[2] = 20 mg/kg, 120 h, dose level Low, time 5 day
[3] = 201 mg/kg, 72 h, dose level High, time 3 day
[4] = 201 mg/kg, 120 h, dose level High, time 5 day

## CCCCCCNC(=O)n1cc(F)c(=O)[nH]c1=O [CARMOFUR]
[1]
  ABSOLUTE BASOPHIL: 0 CELLS/uL
  ABSOLUTE EOSINOPHIL: 56 CELLS/uL
  ABSOLUTE LYMPHOCYTE: 15579 CELLS/uL
  ABSOLUTE MONOCYTE: 284.33 CELLS/uL
  ABSOLUTE SEGMENTED NEUTROPHIL: 1314 CELLS/uL
  BASOPHIL: 0%
  EOSINOPHIL: 0.33%
  ERYTHROCYTE COUNT: 5.63 x10E6/uL
  HEMATOCRIT: 35.8%
  HEMOGLOBIN: 14.23 G/DL
  LEUKOCYTE COUNT: 17.23 x10E3/uL
  LYMPHOCYTE: 90.33%
  MEAN CORPUSCULAR HEMOGLOBIN: 25.27 pg
  MEAN CORPUSCULAR HEMOGLOBIN CONCENTRATION: 39.8 G/DL
  MEAN CORPUSCULAR VOLUME: 63.6 fL
  MONOCYTE: 1.67%
  NEUTROPHIL: 7.67%
  NUCLEATED RED BLOOD CELLS: 0 /100WBC
  PLATELET COUNT: 1328 x10E3/uL
  ALANINE AMINOTRANSFERASE: 51 u/L
  ALBUMIN: 4.43 G/DL
  ALKALINE PHOSPHATASE: 409 u/L
  ASPARTATE AMINOTRANSFERASE: 85.67 u/L
  BLOOD UREA NITROGEN: 13 mg/dL
  CARBON DIOXIDE: 22.67 mmol/L
  CHLORIDE: 103.67 MEQ/L
  CHOLESTEROL: 70.67 mg/dL
  CREATINE PHOSPHOKINASE: 301.67 u/L
  CREATININE: 0.18 mg/dL
  GLUCOSE: 161 mg/dL
  LACTATE DEHYDROGENASE: 305.33 u/L
  LIPASE: 9 u/L
  PHOSPHORUS: 12.3 mg/dL
  POTASSIUM: 6.94 MEQ/L
  SODIUM: 146.4 MEQ/L
  TOTAL BILIRUBIN: 0.17 mg/dL
  TOTAL PROTEIN: 6.13 G/DL
  URIC ACID: 1.63 mg/dL
[2]
  ABSOLUTE BASOPHIL: 0 CELLS/uL
  ABSOLUTE EOSINOPHIL: 222.67 CELLS/uL
  ABSOLUTE LYMPHOCYTE: 15078.33 CELLS/uL
  ABSOLUTE MONOCYTE: 213.33 CELLS/uL
  ABSOLUTE SEGMENTED NEUTROPHIL: 719 CELLS/uL
  BASOPHIL: 0%
  EOSINOPHIL: 1.33%
  ERYTHROCYTE COUNT: 5.39 x10E6/uL
  HEMATOCRIT: 34.47%
  HEMOGLOBIN: 13.83 G/DL
  LEUKOCYTE COUNT: 16.23 x10E3/uL
  LYMPHOCYTE: 93%
  MEAN CORPUSCULAR HEMOGLOBIN: 25.67 pg
  MEAN CORPUSCULAR HEMOGLOBIN CONCENTRATION: 40.1 G/DL
  MEAN CORPUSCULAR VOLUME: 64 fL
  MONOCYTE: 1.33%
  NEUTROPHIL: 4.33%
  NUCLEATED RED BLOOD CELLS: 0 /100WBC
  PLATELET COUNT: 1330.33 x10E3/uL
  ALANINE AMINOTRANSFERASE: 47.67 u/L
  ALBUMIN: 4.3 G/DL
  ALKALINE PHOSPHATASE: 311 u/L
  ASPARTATE AMINOTRANSFERASE: 74.33 u/L
  BLOOD UREA NITROGEN: 14 mg/dL
  CARBON DIOXIDE: 23 mmol/L
  CHLORIDE: 103.33 MEQ/L
  CHOLESTEROL: 73.33 mg/dL
  CREATINE PHOSPHOKINASE: 245.33 u/L
  CREATININE: 0.12 mg/dL
  GLUCOSE: 149 mg/dL
  LACTATE DEHYDROGENASE: 124.33 u/L
  LIPASE: 8 u/L
  PHOSPHORUS: 12.67 mg/dL
  POTASSIUM: 6.45 MEQ/L
  SODIUM: 145.27 MEQ/L
  TOTAL BILIRUBIN: 0.23 mg/dL
  TOTAL PROTEIN: 6.07 G/DL
  URIC ACID: 1.57 mg/dL
[3]
  ABSOLUTE BASOPHIL: 0 CELLS/uL
  ABSOLUTE EOSINOPHIL: 0 CELLS/uL
  ABSOLUTE LYMPHOCYTE: 13152.33 CELLS/uL
  ABSOLUTE MONOCYTE: 146.67 CELLS/uL
  ABSOLUTE SEGMENTED NEUTROPHIL: 901 CELLS/uL
  BASOPHIL: 0%
  EOSINOPHIL: 0%
  ERYTHROCYTE COUNT: 5.67 x10E6/uL
  HEMATOCRIT: 35.7%
  HEMOGLOBIN: 14.47 G/DL
  LEUKOCYTE COUNT: 14.2 x10E3/uL
  LYMPHOCYTE: 92.67%
  MEAN CORPUSCULAR HEMOGLOBIN: 25.5 pg
  MEAN CORPUSCULAR HEMOGLOBIN CONCENTRATION: 40.53 G/DL
  MEAN CORPUSCULAR VOLUME: 62.97 fL
  MONOCYTE: 1%
  NEUTROPHIL: 6.33%
  NUCLEATED RED BLOOD CELLS: 0 /100WBC
  PLATELET COUNT: 1275.33 x10E3/uL
  ALANINE AMINOTRANSFERASE: 52.67 u/L
  ALBUMIN: 4.37 G/DL
  ALKALINE PHOSPHATASE: 367 u/L
  ASPARTATE AMINOTRANSFERASE: 69 u/L
  BLOOD UREA NITROGEN: 23.33 mg/dL
  CARBON DIOXIDE: 21 mmol/L
  CHLORIDE: 102.33 MEQ/L
  CHOLESTEROL: 81 mg/dL
  CREATINE PHOSPHOKINASE: 192.67 u/L
  CREATININE: 0.27 mg/dL
  GLUCOSE: 160 mg/dL
  LACTATE DEHYDROGENASE: 198.33 u/L
  LIPASE: 9.33 u/L
  PHOSPHORUS: 12 mg/dL
  POTASSIUM: 6.3 MEQ/L
  SODIUM: 145.27 MEQ/L
  TOTAL BILIRUBIN: 0.17 mg/dL
  TOTAL PROTEIN: 6.33 G/DL
  URIC ACID: 1.77 mg/dL
[4]
  ABSOLUTE BASOPHIL: 0 CELLS/uL
  ABSOLUTE EOSINOPHIL: 0 CELLS/uL
  ABSOLUTE LYMPHOCYTE: 4570 CELLS/uL
  ABSOLUTE MONOCYTE: 201.5 CELLS/uL
  ABSOLUTE SEGMENTED NEUTROPHIL: 2778.5 CELLS/uL
  BASOPHIL: 0%
  EOSINOPHIL: 0%
  ERYTHROCYTE COUNT: 8.62 x10E6/uL
  HEMATOCRIT: 52.2%
  HEMOGLOBIN: 20.65 G/DL
  LEUKOCYTE COUNT: 7.55 x10E3/uL
  LYMPHOCYTE: 62.5%
  MEAN CORPUSCULAR HEMOGLOBIN: 24 pg
  MEAN CORPUSCULAR HEMOGLOBIN CONCENTRATION: 39.6 G/DL
  MEAN CORPUSCULAR VOLUME: 60.55 fL
  MONOCYTE: 2.5%
  NEUTROPHIL: 35%
  NUCLEATED RED BLOOD CELLS: 0 /100WBC
  PLATELET COUNT: 1522.5 x10E3/uL
  ALANINE AMINOTRANSFERASE: 43.5 u/L
  ALBUMIN: 5.05 G/DL
  ALKALINE PHOSPHATASE: 216 u/L
  ASPARTATE AMINOTRANSFERASE: 414 u/L
  BLOOD UREA NITROGEN: 219.5 mg/dL
  CARBON DIOXIDE: 19 mmol/L
  CHLORIDE: 115 MEQ/L
  CHOLESTEROL: 78.5 mg/dL
  CREATINE PHOSPHOKINASE: 2230 u/L
  CREATININE: 0.29 mg/dL
  GLUCOSE: 164 mg/dL
  LACTATE DEHYDROGENASE: 1956 u/L
  LIPASE: 24.5 u/L
  PHOSPHORUS: 20.35 mg/dL
  POTASSIUM: 5.82 MEQ/L
  SODIUM: 154.1 MEQ/L
  TOTAL BILIRUBIN: 0.6 mg/dL
  TOTAL PROTEIN: 6.6 G/DL
  URIC ACID: 4.25 mg/dL
